The test system of assay [1] is 17β-estradiol. Briefly: 17β-estradiol level in the blood of middle-aged women after 8 weeks administration (ELISA). The class given is in vivo. The following applies: middle-aged women, 600, 1,200, 2,400 mg a day for 8 weeks. The protocol:
(§1) Forty middle-aged women aged 40 or more were divided into four groups each having ten women, and the four groups were designated as a control group taking a placebo and three test groups taking pinitol. Similarly, forty middle-aged women aged 40 or more were divided into four groups each having ten women, and the four groups were designated as a control group taking a placebo and three test groups taking D-chiro-inositol. Thereafter, the placebo, pinitol, or D-chiro-inositol was administered at various concentrations for 8 weeks in a double-blind fashion. The pinitol, D-chiro-inositol, or placebo was administered at 600 mg, 1,200 mg, and 2,400 mg a day. The blood was taken from the arm vein at the same time, 2:00 pm, before intake and after the last intake, and then transferred to heparinized tubes, followed by centrifugation at 2,500 rpm (4° C.) for 15 minutes, and therefore, the plasma was separated by transfer to new tubes. The separated plasma was used to measure sex hormone levels in the blood. The levels of hormones and proteins in the blood were measured according to the manufacturer's manual by using the ELISA kit (Enzo Life Sciences, U.S.A.) for measurement of 17β-estradiol or sex-hormone binding globulin (SHBG) in the blood. In order to analyze the effects of pinitol and D-chiro-inositol on sex hormones in middle-aged women, forty middle-aged 40 or more were divided into four groups each having ten women, and the four groups were designated as a control group taking a placebo and three test groups taking pinitol. Similarly, forty middle-aged women aged 40 or more were divided into four groups each having ten women, and the four groups were designated as a control group taking a placebo and three test groups taking D-chiro-inositol. Thereafter, the placebo, pinitol, or D-chiro-inositol was administered at various concentrations for 8 weeks in a double-blind fashion. The pinitol or D-chiro-inositol was administered at 600 mg, 1,200 mg, and 2,400 mg a day for 8 weeks. As a result of the test, there was no significant change in 17β-estradiol level in the blood in the women between pre- and pro-administration of the placebo. […] According to the test results, it could be confirmed that, similar to the results in the white rats, pinitol and D-chiro-inositol can alleviate female menopause symptoms by increasing the 17β-estradiol levels in the blood and decreasing the SHBG levels in the blood.
Background: An ELISA detects its analyte on a solid surface through an enzyme-linked reagent.

Another assay deals with middle-aged women. Briefly: Menopause Rating Scale (MRS) survey in middle-aged women. Format: in vivo. The following applies: for alleviation rate of menopausal symptoms: MRS vs placebo; for MRS score post-taking compared with placebo taking group and pre-taking: middle-aged women, 600, 1,200, 2,400 mg once a day for 8 weeks. The protocol:
Forty middle-aged women aged 40 or more were divided into four groups each having ten women, and the four groups were designated as a control group taking a placebo and three test groups taking pinitol. Similarly, forty middle-aged women aged 40 or more were divided into four groups each having ten women, and the four groups were designated as a control group taking a placebo and three test groups taking D-chiro-inositol. Thereafter, the placebo, pinitol, or D-chiro-inositol was administered at various concentrations for 8 weeks in a double-blind fashion. The pinitol, D-chiro-inositol, or placebo was administered at 600 mg, 1,200 mg, and 2,400 mg a day. The blood was taken from the arm vein at the same time, 2:00 pm, before intake and after the last intake, and then transferred to heparinized tubes, followed by centrifugation at 2,500 rpm (4° C.) for 15 minutes, and therefore, the plasma was separated by transfer to new tubes. The separated plasma was used to measure sex hormone levels in the blood. Since subjective symptoms account for a large proportion of menopausal symptoms, several measures are used to assess the degrees of menopausal clinical symptoms. For assessment of menopausal clinical symptoms, Kupperman's index has been used for a long time. However, questions of vaginal dryness, reduction of sexual desire, and the like, are missing in the Kupperman's index, and therefore, the Menopause Rating Scale (MRS) and the Menopause-Specific Quality of Life Questionnaire (MENQOL), which are questionnaires supplementing such questions, are being widely used in current clinical trials. The MRS has been globally recognized to have reliability and feasibility due to its advantages of having a small number of questions, a total of 11 questions, and being simple and convenient, and thus the MRS is being recited in many studies (Table 1). In the present invention, the severity of menopausal symptoms was measured and analyzed by allowing the above middle-aged women clinical subjects to fill out the MRS questionnaire. The alleviating effects on female menopause symptoms were assessed by allowing the middle-aged women clinical subjects to fill out the Menopause Rating Scale (MRS) questionnaire pre- and post-intake of the placebo, pinitol, or D-chiro-inositol. [table] In order to assess the alleviating effects of female menopause symptoms by pinitol and D-chiro-inositol, a Korean-version Menopause Rating Scale (MRS) survey was performed. Eighty middle-aged 40 or more were divided into four groups, a placebo group and pinitol administration groups, each having ten women, and similarly, were divided into four groups, a placebo group and D-chiro-inositol administration groups, each having ten women. Thereafter, the placebo and 600 mg, 1,200 mg, and 2,400 mg of pinitol or D-chiro-inositol were administered once a day for 8 weeks in a double-blind fashion. The women were allowed to fill out the Menopause Rating Scale (MRS) questionnaire before and after taking the placebo, pinitol, or D-chiro-inositol. The scores of the MRS questionnaire were calculated as a total score. The 0-4 points indicate a good menopausal state, which is a smooth menopause state. A total of 5-8 points indicate a slight menopausal state, requiring management. A total of 9-15 points indicate a severe menopausal state, requiring precise diagnosis and treatment by specialists because of menopausal diseases. Last, a total of 16 points or more indicates an extremely severe menopausal state, thereby urgently requiring therapy through minute management and long-term plans. […] The MRS measurement results could confirm that pinitol alleviated female menopause symptoms caused by female hormone reduction, such as reduction of sexual desire, insomnia, urogenital diseases and infections, joint and muscular diseases, depression, and hypersensitiveness.

Assay [2] has as its system sex-hormone binding globulin (SHBG). Briefly: SHBG level in the blood of white rats after 8 weeks oral administration (ELISA). The class given is in vivo, Sprague-Dawley (SD) white rats. The settings on record: female SD rats. The protocol: Pinitol and D-chiro-inositol were purchased from Biosearch Life (Camino de Purchil, 66. 18004 Granada, Spain). Six-month-old female Sprague-Dawley (SD) white rats (Orient, Korea) were divided into a test group administered with pinitol or D-chiro-inositol and a control group administered with physiological saline while ten animals were used in the test for each of the groups. The rats were bred in a breeding room controlled under a temperature of 22±1° C., humidity of 55±1%, and 12-hour light/dark cycle. The rats were given free access to food and water, and for 7 days after entrance, the rats were acclimated for the breeding environment, and then were used for tests. Physiological saline and pinitol or D-chiro-inositol were orally administered at various doses (10 mg/kg, 20 mg/kg, or 40 mg/kg) at the same amount once a day for 8 weeks. After the last oral administration, the rats were fasted overnight and then anesthetized with ether, and the abdomen was cut open, and then blood was collected from the abdominal vein. The collected blood was transferred to a heparinized tube, followed by centrifugation at 2.500 rpm for 15 minutes for 4° C., thereby separating serum and plasma. The separated blood was stored at −80° C. until the next test. The levels of hormones and proteins in the blood were measured according to the manufacturer's manual by using the ELISA kit (Enzo Life Sciences, U.S.A.) for measurement of 17β-estradiol or sex-hormone binding globulin (SHBG) in the blood. In order to analyze the effects of pinitol or D-chiro-inositol (DCI) on the levels or activity of female hormones, which are blood indexes associated with menopausal symptoms, in female mature Sprague-Dawley (SD) white rats, a test was conducted. The physiological saline for the control group or pinitol or D-chiro-inositol (10 mg/kg, 20 mg/kg, and 40 mg/kg) for the test groups were orally administered at the predetermined time once a day for 8 weeks. After the completion of the last administration, the 17β-estradiol and sex-hormone binding globulin (SHBG) levels in the blood were measured by ELISA kit. […] Therefore, it could be confirmed that the SHBG level in the blood was decreased by pinitol or D-chiro-inositol, leading to increases in activity of female hormones. According to the test results, it was confirmed that both pinitol and D-chiro-inositol can alleviate female menopause symptoms by increasing the 17β-estradiol levels in the blood and decreasing the SHBG levels in the blood.

Assay [3] shares this test system. The assay is described as follows: SHBG level in the blood of middle-aged women after 8 weeks administration (ELISA). The class given is in vivo. The procedure: as §1, with “The pinitol, D-chiro-inositol, or placebo was administered at 600 mg, 1,200 mg, and 2,400 mg a day.” left out, “The pinitol or D-chiro-inositol was administered at 600 mg, 1,200 mg, and 2,400 mg a day for 8 weeks.” left out

Assay [4] deals with 17β-estradiol. Briefly: 17β-estradiol level in the blood of white rats after 8 weeks oral administration (ELISA). Format: in vivo, Sprague-Dawley (SD) white rats. The following applies: female SD rats, 10, 20, 40 mg/kg oral once a day for 8 weeks, vs physiological saline. The procedure:
Pinitol and D-chiro-inositol were purchased from Biosearch Life (Camino de Purchil, 66. 18004 Granada, Spain). Six-month-old female Sprague-Dawley (SD) white rats (Orient, Korea) were divided into a test group administered with pinitol or D-chiro-inositol and a control group administered with physiological saline while ten animals were used in the test for each of the groups. The rats were bred in a breeding room controlled under a temperature of 22±1° C., humidity of 55±1%, and 12-hour light/dark cycle. The rats were given free access to food and water, and for 7 days after entrance, the rats were acclimated for the breeding environment, and then were used for tests. Physiological saline and pinitol or D-chiro-inositol were orally administered at various doses (10 mg/kg, 20 mg/kg, or 40 mg/kg) at the same amount once a day for 8 weeks. […] The levels of hormones and proteins in the blood were measured according to the manufacturer's manual by using the ELISA kit (Enzo Life Sciences, U.S.A.) for measurement of 17β-estradiol or sex-hormone binding globulin (SHBG) in the blood. […] After the completion of the last administration, the 17β-estradiol and sex-hormone binding globulin (SHBG) levels in the blood were measured by ELISA kit. […]

Where [5] appears, read: middle-aged women, 600 mg once a day for 8 weeks.
The mark [6] stands for this setting: middle-aged women, 1,200 mg once a day for 8 weeks.
Where [7] appears, read: middle-aged women, 2,400 mg once a day for 8 weeks.
Setting [8] is: 10 mg/kg oral once a day for 8 weeks.
The mark [9] stands for this setting: 20 mg/kg oral once a day for 8 weeks.
Setting [10] is: 40 mg/kg oral once a day for 8 weeks.
Setting [11] is: middle-aged women, 600 mg a day for 8 weeks.
Where [12] appears, read: middle-aged women, 1,200 mg a day for 8 weeks.
[13] abbreviates: middle-aged women, 1,400 mg administration group, 8 weeks.

Each structure is given as a SMILES string.

Turning to `O[C@H]1[C@H](O)[C@H](O)[C@@H](O)[C@H](O)[C@H]1O` [D-chiro-inositol], the “17β-estradiol level in the blood compared with placebo administration group” value with 17β-estradiol [1] was “significantly increased in a concentration-dependent manner”. Moreover, in the assay on 17β-estradiol [1], the “17β-estradiol level in the blood, pre- versus post-administration” value was “no particular difference”. Moreover, the “decrease of average MRS score compared with placebo group” value in the assay on middle-aged women (setting [5]) is recorded as 5.7 points; in the assay on middle-aged women (setting [6]) it was 9.7 points; in the assay with middle-aged women (setting [7]), 10.3 points. Besides, the “alleviation rate of menopausal symptoms” value in the assay with middle-aged women (setting [5]) was “about 40.7%”; with middle-aged women (setting [6]), around 69.3%; in the assay with middle-aged women (setting [7]) it was around 73.6%. Besides, in the assay on middle-aged women, the “MRS score post-taking compared with placebo taking group and pre-taking” value is recorded as “significantly decreased”. The “decrease of SHBG level in the blood compared with control group” value in assay [2] (setting [8]) is reported as “about 7.0 nmol/L”; in assay [2] (setting [9]), around 16.2 nmol/L; in assay [2] (setting [10]) it was around 21.1 nmol/L. Also, the “decrease of SHBG level in the blood compared with placebo administration group” value is recorded as “about 8.7 nmol/L” in assay [3] (setting [11]), around 15.9 nmol/L in assay [3] (setting [12]) and around 18.4 nmol/L in assay [3] (setting [13]). Also, in the assay on 17β-estradiol [4], the “17β-estradiol level in the blood compared with control group” value was “significantly increased in a concentration-dependent manner”.

Take `CO[C@H]1[C@H](O)[C@@H](O)[C@@H](O)[C@H](O)[C@@H]1O` [pinitol]: the “17β-estradiol level in the blood compared with placebo administration group” value with 17β-estradiol [1] is given as “significantly increased in a concentration-dependent manner”. Moreover, in the assay with 17β-estradiol [1], the “17β-estradiol level in the blood, pre- versus post-administration” value is given as “no particular difference”. The “decrease of average MRS score compared with placebo group” value in the assay with middle-aged women (setting [5]) is 4.3 points; in the assay with middle-aged women (setting [6]), 8.4 points; with middle-aged women (setting [7]), 9.1 points. The “alleviation rate of menopausal symptoms” value with middle-aged women (setting [5]) was “about 32.6%”; in the assay on middle-aged women (setting [6]), around 63.6%; in the assay on middle-aged women (setting [7]), around 68.9%. In the assay with middle-aged women, the “MRS score post-taking compared with placebo taking group and pre-taking” value is on record as “significantly decreased”. Besides, the entries for the “decrease of SHBG level in the blood compared with control group” value in assay [2] (setting [8]), in assay [2] (setting [9]) and in assay [2] (setting [10]) were “about 4.2 nmol/L”, around 10.0 nmol/L and around 12.2 nmol/L, respectively. Besides, the results for the “decrease of SHBG level in the blood compared with placebo administration group” value in assay [3] (setting [11]), in assay [3] (setting [12]) and in assay [3] (setting [13]) were “about 8.3 nmol/L”, around 16.0 nmol/L and around 18.6 nmol/L, respectively. In addition, in assay [3] (middle-aged women, 8 weeks), the “SHBG level in the blood, pre- versus post-administration” value was “no particular difference”. In the assay with 17β-estradiol [4], the “17β-estradiol level in the blood compared with control group” value is reported as “significantly increased in a concentration-dependent manner”.

The values above are taken from patent publication US11040016B2, “Composition for alleviating, preventing or treating female menopausal symptoms, containing, as active ingredient, pinitol, D-chiro-inositol or analog compounds thereof” (DY NATURAL CO., LTD, priority 2016, dated 2021).
